Experiments:
EKVX = assay: Cytotoxicity against human EKVX cells by sulforhodamine B assay; format: functional
HOP-62 = assay: Cytotoxicity against human HOP62 cells by sulforhodamine B assay; format: functional
NCI-H23 = assay: Cytotoxicity against human NCI-H23 cells by sulforhodamine B assay; format: functional
HT-29 [1] = assay: Cytotoxicity against human HT-29 cells by sulforhodamine B assay; format: functional
SF-295 = assay: Cytotoxicity against human SF295 cells by sulforhodamine B assay; format: functional
SNB-75 = assay: Cytotoxicity against human SNB75 cells by sulforhodamine B assay; format: functional
Malme-3M = assay: Cytotoxicity against human MALME-3M cells by sulforhodamine B assay; format: functional
SK-MEL-5 = assay: Cytotoxicity against human SK-MEL-5 cells by sulforhodamine B assay; format: functional
UACC-257 = assay: Cytotoxicity against human UACC257 cells by sulforhodamine B assay; format: functional
IGROV-1 = assay: Cytotoxicity against human IGROV1 cells by sulforhodamine B assay; format: functional
OVCAR-5 = assay: Cytotoxicity against human OVCAR5 cells by sulforhodamine B assay; format: functional
SK-OV-3 = assay: Cytotoxicity against human SKOV3 cells by sulforhodamine B assay; format: functional
786-0 = assay: Cytotoxicity against human 786-0 cells by sulforhodamine B assay; format: functional
CAKI-1 = assay: Cytotoxicity against human Caki1 cells by sulforhodamine B assay; format: functional
DU-145 = assay: Cytotoxicity against human DU145 cells by sulforhodamine B assay; format: functional
MCF7 = assay: Cytotoxicity against human MCF7 cells by sulforhodamine B assay; format: functional
MDA-MB-231 = assay: Cytotoxicity against human MDA-MB-231 cells by sulforhodamine B assay; format: functional
MDA-MB-435 = assay: Cytotoxicity against human MDA-MB-435 cells by sulforhodamine B assay; format: functional
T47D = assay: Cytotoxicity against human T47D cells by sulforhodamine B assay; format: functional
HT-29 [2] = assay: Antitumor activity against human HT-29 cells assessed as upregulation of RASSF4 mRNA expression at 2 nM after 3 hrs relative to control; format: functional
HT-29 [3] = assay: Antitumor activity against human HT-29 cells assessed as upregulation of RASSF4 mRNA expression at 10 nM after 3 hrs relative to control; format: functional
HT-29 [4] = assay: Antitumor activity against human HT-29 cells assessed as upregulation of RASSF4 mRNA expression at 2 nM after 6 hrs relative to control; format: functional
HT-29 [5] = assay: Antitumor activity against human HT-29 cells assessed as upregulation of RASSF4 mRNA expression at 10 nM after 6 hrs relative to control; format: functional
HT-29 [6] = assay: Antitumor activity against human HT-29 cells assessed as upregulation of DDIT4 mRNA expression at 2 nM after 3 hrs relative to control; format: functional
HT-29 [7] = assay: Antitumor activity against human HT-29 cells assessed as upregulation of DDIT4 mRNA expression at 10 nM after 6 hrs relative to control; format: functional
HT-29 [8] = assay: Antitumor activity against human HT-29 cells assessed as upregulation of DDIT4 mRNA expression at 2 nM after 12 hrs relative to control; format: functional
HT-29 [9] = assay: Antitumor activity against human HT-29 cells assessed as upregulation of DDIT4 mRNA expression at 10 nM after 12 hrs relative to control; format: functional
HT-29 [10] = assay: Antitumor activity against human HT-29 cells assessed as down-regulation of RAB11B mRNA expression at 2 nM after 3 hrs relative to control; format: functional
HT-29 [11] = assay: Antitumor activity against human HT-29 cells assessed as down-regulation of RAB11B mRNA expression at 10 nM after 6 hrs relative to control; format: functional
HT-29 [12] = assay: Antitumor activity against human HT-29 cells assessed as down-regulation of RAB11B mRNA expression at 2 nM after 12 hrs relative to control; format: functional
HT-29 [13] = assay: Antitumor activity against human HT-29 cells assessed as down-regulation of TAL1 mRNA expression at 2 nM after 12 hrs relative to control; format: functional
HT-29 [14] = assay: Antitumor activity against human HT-29 cells assessed as down-regulation of TAL1 mRNA expression at 10 nM after 12 hrs relative to control; format: functional
HT-29 [15] = assay: Antitumor activity against human HT-29 cells assessed as down-regulation of CDC25A mRNA expression at 2 nM after 3 hrs relative to control; format: functional
HT-29 [16] = assay: Antitumor activity against human HT-29 cells assessed as down-regulation of CDC25A mRNA expression at 10 nM after 12 hrs relative to control; format: functional
HT-29 [17] = assay: Antitumor activity against human HT-29 cells assessed as down-regulation of CCNE2 mRNA expression at 2 nM after 12 hrs relative to control; format: functional
HT-29 [18] = assay: Antitumor activity against human HT-29 cells assessed as down-regulation of GTSE1 mRNA expression at 2 nM after 6 hrs relative to control; format: functional
HT-29 [19] = assay: Antitumor activity against human HT-29 cells assessed as down-regulation of GTSE1 mRNA expression at 10 nM after 12 hrs relative to control; format: functional
HT-29 [20] = assay: Antitumor activity against human HT-29 cells assessed as upregulation of KCNK10 mRNA expression at 10 nM after 3 hrs relative to control; format: functional
HT-29 [21] = assay: Antitumor activity against human HT-29 cells assessed as upregulation of KCNK10 mRNA expression at 2 nM after 6 hrs relative to control; format: functional
U2OS [22] = assay: Cell cycle arrest in human U2OS cells assessed as accumulation at G1 phase at 5 nM after 24 hrs by FACS analysis (reference value: 49.8%); format: functional
U2OS [23] = assay: Cell cycle arrest in human U2OS cells assessed as accumulation at G1 phase at 5 nM after 48 hrs by FACS analysis (reference value: 49.8%); format: functional
U2OS [24] = assay: Cell cycle arrest in human U2OS cells assessed as accumulation at G1 phase at 50 nM after 48 hrs by FACS analysis (reference value: 49.8%); format: functional
U2OS [25] = assay: Cell cycle arrest in human U2OS cells assessed as accumulation at S phase at 5 nM after 48 hrs by FACS analysis (reference value: 37.3%); format: functional
U2OS [26] = assay: Cell cycle arrest in human U2OS cells assessed as accumulation at S phase at 50 nM after 48 hrs by FACS analysis (reference value: 37.3%); format: functional
U2OS [27] = assay: Cell cycle arrest in human U2OS cells assessed as accumulation at sub-G1 phase at 50 nM after 48 hrs by FACS analysis relative to control; format: functional
[28] = Cytotoxicity against activated human CD4+ T cells assessed as cell viability after 5 days by fluorescence detection method; format: cell-based; settings: 120 h
U2OS [29] = assay: Cell cycle arrest in human U2OS cells overexpressing mouse Fgfr1 assessed as accumulation at G1 phase at 15 nM after 48 hrs by CMV-GFP reporter assay method (reference value: 58%); format: functional
U2OS [30] = assay: Cell cycle arrest in human U2OS cells overexpressing mouse Fgfr1 assessed as accumulation at S phase at 15 nM after 48 hrs by CMV-GFP reporter assay method (reference value: 33%); format: functional
[31] = read-out: LC50 (the source's name)

CC[C@H](C)[C@H]1C(=O)N2CCC[C@H]2C(=O)O[C@H](C(C)(C)C)C[C@@H](C)C[C@H](O)[C@H](C)C2=N[C@@H](/C=C(\C)C(=O)N[C@@H](Cc3ccc(OC)cc3)C(=O)N(C)[C@@H](C)C(=O)N1C)CS2 [APRATOXIN A]
GI50 (EKVX): 7.56 nM
GI50 (HOP-62): 7.68 nM
GI50 (NCI-H23): 8.23 nM
GI50 (HT-29 [1]): 1.04 nM
CC50 (HT-29 [1]; [31]): 75.2 nM
GI50 (SF-295): 1.26 nM
CC50 (SF-295; [31]): 70.3 nM
GI50 (SNB-75): 1.96 nM
GI50 (Malme-3M): 4.77 nM
GI50 (SK-MEL-5): 2.31 nM
GI50 (UACC-257): 7.15 nM
GI50 (IGROV-1): 0.742 nM
GI50 (OVCAR-5): > 100 nM
GI50 (SK-OV-3): 5.27 nM
GI50 (786-0): 4.52 nM
GI50 (CAKI-1): 4.05 nM
GI50 (DU-145): 10.3 nM
GI50 (MCF7): 6.57 nM
GI50 (MDA-MB-231): 1.46 nM
GI50 (MDA-MB-435): 3.35 nM
GI50 (T47D): 3.63 nM
fold change (FC) (HT-29 [2]): 12.65
fold change (FC) (HT-29 [3]): <=2
fold change (FC) (HT-29 [4]): <=2
fold change (FC) (HT-29 [5]): <=2
fold change (FC) (HT-29 [6]): 2.49
fold change (FC) (HT-29 [7]): 16.18
fold change (FC) (HT-29 [8]): 3.78
fold change (FC) (HT-29 [9]): 6.82
fold change (FC) (HT-29 [10]): -3.68
fold change (FC) (HT-29 [11]): <=2
fold change (FC) (HT-29 [12]): <=2
fold change (FC) (HT-29 [13]): <=2
fold change (FC) (HT-29 [14]): <=2
fold change (FC) (HT-29 [15]): <=2
fold change (FC) (HT-29 [16]): -2.79
fold change (FC) (HT-29 [17]): <=2
fold change (FC) (HT-29 [18]): <=2
fold change (FC) (HT-29 [19]): -2.35
fold change (FC) (HT-29 [20]): 10.01
fold change (FC) (HT-29 [21]): 6.35
inhibition at 0.005 µM (U2OS [22]): 61.6%
inhibition at 0.005 µM (U2OS [23]): 82.1%
inhibition at 0.05 µM (U2OS [24]): 50.2%
inhibition at 0.005 µM (U2OS [25]): 5.5%
inhibition at 0.05 µM (U2OS [26]): 0.8%
inhibition at 0.05 µM (U2OS [27]): 42.7%
IC50 [28]: 60 nM
inhibition at 0.015 µM (U2OS [29]): 58%
inhibition at 0.015 µM (U2OS [30]): 28%
